From paper PMC10011554, “BET inhibitor trotabresib in heavily pretreated patients with solid tumors and diffuse large B-cell lymphomas” (Nature Communications, 2023)
“And” between values parts separate entries of the source, which are not always exact repeats. Equal values may be shown once. Read-outs that look alike come from different tables or passages of the source.

Key:
[1] = system: advanced or unresectable solid tumors; experiment: Tumor response (RECIST v1.1/RANO), PFS and OS in phase I study, parts A and C; format: in vivo, human
Experimental: (§1) Secondary objectives were the preliminary efficacy of trotabresib in terms of clinical benefit rate (CR + PR + SD of ≥4 months’ duration), ORR (CR + PR), duration of response or SD, PFS, OS, and the PK of trotabresib. In addition, part C assessed the effects of food on the PK and the safety of trotabresib as a secondary objective. The pharmacodynamics of trotabresib were assessed as an exploratory objective.
(§2) Response was assessed using Response Evaluation Criteria in Solid Tumors (RECIST) v1.1[54] in patients with solid tumors, International Working Group criteria in patients with DLBCL[55], and Response Assessment in Neuro-Oncology (RANO) criteria[56] in patients with CNS tumors (astrocytoma and glioblastoma). For patients with BCC, the response was assessed using a combination of radiological assessment of target lesions per RECIST v1.1, digital clinical photography assessed per World Health Organization (WHO) criteria, and punch biopsies to confirm CR. PK parameters assessed included Cmax, tmax, AUC, t½, apparent clearance (CL/F), and apparent volume of distribution (Vz/F).
(§3) Bayesian logistic regression model based on dose-limiting toxicity was used to provide initial guidance for dose recommendations in the dose-escalation phase. The final decision was reached by considering the totality of safety, PK, and PD data. For binary efficacy endpoints, two-sided 95% Clopper–Pearson exact confidence intervals were provided. For time-to-event endpoints (PFS and OS), the median and 95% CI were estimated using the Kaplan–Meier method.

R/R DLBCL = experiment: Tumor response (International Working Group criteria), PFS and OS in phase I study, part B; format: in vivo, human
Experimental: as §1, §2, §3

[2] = Plasma pharmacokinetics and food effect, part C; format: in vivo, human; details: 45 mg/day; for AUC(0-t) / Cmax / Tmax / AUC(0-inf) / half-life / Vd/F: human, plasma, oral; for Cmax: n = 15, read-out: Cmax, GM (% GCV); for Tmax: n = 15, read-out: Median tmax (range); for AUC(0-inf): n = 15, read-out: AUCinf, GM (% GCV); for half-life: n = 15, read-out: Mean t½ (% CV) (converted); for Vd/F: n = 15, read-out: Vss/F, GM (% GCV)
Experimental: as §2
Serial blood samples for PK and pharmacodynamic analyses were collected for each dosing schedule after the first and last doses in cycle 1. Additional blood samples for assessment of the food effect on trotabresib PK in part C were collected during cycle 2. The food effect–evaluable population comprised all patients with adequate PK data to allow calculation of trotabresib AUC from time 0 (day 1) to day 22 from both the fed and fasted treatment periods and who had completed a 4-h post-dose fast during the fasted cycle or consumed the entire high-fat, high-calorie meal during the fed cycle and had received all trotabresib doses during both treatment periods.

RC-K8 (ABC DLBCL) = system: RC-K8 (ABC DLBCL); parameters: method as in Report CC-90010-Pharm-1018; details: RC-K8, Experiment 1, ref Report CC-90010-Pharm-1018; read-out: absolute IC50, proliferation; cited from earlier work
TMD8 (ABC DLBCL) = system: TMD8 (ABC DLBCL); parameters: method as in Report CC-90010-Pharm-1018; details: TMD8, Experiment 1, ref Report CC-90010-Pharm-1018; read-out: absolute IC50, proliferation; cited from earlier work
FARAGE (GCB DLBCL) = system: FARAGE (GCB DLBCL); parameters: method as in Report CC-90010-Pharm-1018; details: read-out: absolute IC50, proliferation, cited from earlier work
[3] = system: 14 PDX-derived GBM tumor models; parameters: method as in Investigator's Brochure; details: ref Investigator's Brochure, cited from earlier work
[4] = system: BR0869f ER-PR-Her2+ PDX-derived breast cancer model; parameters: method as in Investigator's Brochure; details: 7 or 14 days, ref Investigator's Brochure, read-out: mean IC50, colony formation; cited from earlier work
[5] = parameters: method as in Unpublished data from Celgene Corporation; details: COH70 study, ref Unpublished data from Celgene Corporation; cited from earlier work
GBM3 GBM PDX = system: GBM3 GBM PDX; parameters: method as in Unpublished data from Celgene Corporation; details: ref Unpublished data from Celgene Corporation, cited from earlier work
CYP3A4/5, CYP2C8 = system: CYP3A4/5, CYP2C8; parameters: method as in Investigator's Brochure; details: ref Investigator's Brochure; cited from earlier work
P-gp = system: P-gp; parameters: method as in Investigator's Brochure; details: ref Investigator's Brochure; cited from earlier work
[6] = parameters: method as in Investigator's Brochure; details: rats, IV, non-radiolabeled, ref Investigator's Brochure; cited from earlier work
[7] = part A (N = 69), 02 Dec 2019 cutoff
[8] = part B R/R DLBCL (N = 23), treated population

In the case of Cn1cc(-c2cc(S(C)(=O)=O)ccc2OCC2CC2)c2ccccc2c1=O [trotabresib], the “patients on treatment ≥24 cycles with sustained SD” value ([1]; part A) is reported as “five”, the “clinical benefit rate (CBR; CR, PR, or SD ≥4 months)” value ([1]; part A (N = 69)) is reported as 17.4% and the “objective response rate (ORR; CR or PR)” value ([1]; part A (N = 69)) is reported as 2.9%. For the same molecule, the “subjects with SD” value [1, 7] was 33.3%, the “subjects with SD ≥ 4 months” value [1, 7] was 14.5% and the “subjects with confirmed CR” value [1, 7] was 1.4%. The “subjects with confirmed PR” value [1, 7] was 1.4%, the “Median OS (95% CI)” value ([1]; part A (n = 69)) was 189 (161–258) days and the “Median PFS (95% CI)” value ([1]; part A (n = 69)) was 57 (52–81) days. For the same molecule, the OS range ([1]; part A (n = 69)) was 15 to 853 days, the PFS range ([1]; part A (n = 69)) was 11 to 945 days and the “subjects with stable disease” value ([1]; part A, 10 December 2018 cutoff) was 27.5%. The “duration of confirmed partial response” value ([1]; part A, one patient with endometrial cancer) was 8 cycles, the “duration of complete response” value ([1]; part A, one patient with grade 2 diffuse astrocytoma) was 19 cycles and the total treatment duration ([1]; part A, one patient with salivary gland cancer, ongoing at cycle 53) was 4.0 years. For the same molecule, the time on treatment ([1]; part A, one patient with thymic cancer (38 cycles)) was 3.1 years, the “further patients on treatment ≥1 year with sustained SD” value ([1]; part C) was “seven” and the “best response CR” value ([1]; part C (N = 41)) was 0%. The “best response PD” value ([1]; part C (N = 41)) was 19.5%, the “best response PR” value ([1]; part C (N = 41)) was 0% and the CBR ([1]; part C (N = 41), treated population) was 31.7%. For the same molecule, the ORR ([1]; part C (N = 41), treated population, confirmed responses) was 0.0%, the “Median OS (95% CI)” value ([1]; part C (n = 41)) was 508 days and 508 (239–NE) days and the “Median PFS (95% CI)” value ([1]; part C (n = 41)) was 114 (84–239) days. The OS range ([1]; part C (n = 41)) was 33 to 508 days, the PFS range ([1]; part C (n = 41)) was 33 to 438 days and the “reduction in tumor size (minor response)” value ([1]; part C, one patient with refractory high-grade astrocytoma) was 38%. For the same molecule, the treatment duration ([1]; part C, one patient with treatment-refractory high-grade astrocytoma, ongoing) was 2.5 years, the “reduction in target lesion size” value (R/R DLBCL; one patient with GCB immunophenotype R/R DLBCL, after two cycles) was 57% and the “Median OS (95% CI)” value (R/R DLBCL; part B DLBCL (n = 23)) was 159 days and 159 (101–NE) days. For the same molecule, the “Median PFS (95% CI)” value (R/R DLBCL; part B DLBCL (n = 23)) was 54 (49–65) days, the OS range (R/R DLBCL; part B DLBCL (n = 23)) was 44 to 423 days and the PFS range (R/R DLBCL; part B DLBCL (n = 23)) was 12 to 423 days. For the same molecule, the “best response CR” value (R/R DLBCL; part B R/R DLBCL (N = 23)) was 8.7%, the “best response PD” value (R/R DLBCL; part B R/R DLBCL (N = 23)) was 43.5% and the “best response PR” value (R/R DLBCL; part B R/R DLBCL (N = 23)) was 4.3%. For the same molecule, the “best response SD” value (R/R DLBCL; part B R/R DLBCL (N = 23)) was 8.7%, the CBR (R/R DLBCL; [8]) was 17.4% and the ORR (R/R DLBCL; [8]) was 13.0%. The total treatment duration (R/R DLBCL; part B, one patient with transformed DLBCL, ongoing at cycle 17) was 1.6 years, the “Clss/F, GM (% GCV)” value ([2]; day 4, fasted, n = 15) was 2.60 (25.89) L/h and the “Median tmax (range)” value ([2]; day 4, fasted, n = 15) was 1.50 (1.00–3.00) h. The “Clss/F, GM (% GCV)” value ([2]; day 4, fed, n = 15) was 2.65 (28.52) L/h, the AUC(0-t) ([2]; cycle 1 day 1, fasted, n = 14, read-out: AUC0–24, GM (% GCV)) was 6650 ng·h/mL and the Cmax ([2]; cycle 1 day 1, fasted) was 560 ng/mL. For the same molecule, the Tmax ([2]; cycle 1 day 1, fasted) was 1.55 h, the AUC(0-t) ([2]; day 4, fasted, n = 15, read-out: AUC0–24, GM (% GCV)) was 17300 ng·h/mL and the AUC(0-inf) ([2]; day 4, fasted) was 66500 ng·h/mL. The AUC(0-t) ([2]; day 4, fasted, n = 15, read-out: AUClast, GM (% GCV)) was 65100 ng·h/mL, the Cmax ([2]; day 4, fasted) was 1120 ng/mL and the half-life ([2]; day 4, fasted) was 69.1 h. The Vd/F ([2]; day 4, fasted) was 235 L, the AUC(0-t) ([2]; day 4, fed, n = 14, read-out: AUC0–24, GM (% GCV)) was 16800 ng·h/mL and the AUC(0-inf) ([2]; day 4, fed) was 67200 ng·h/mL. For the same molecule, the AUC(0-t) ([2]; day 4, fed, n = 15, read-out: AUClast, GM (% GCV)) was 65600 ng·h/mL, the Cmax ([2]; day 4, fed) was 904 ng/mL and the half-life ([2]; day 4, fed) was 67.8 h. For the same molecule, the Tmax ([2]; day 4, fed) was 4 h, the Vd/F ([2]; day 4, fed) was 228 L and the IC50 (RC-K8 (ABC DLBCL)) was 130 nM. The IC50 (TMD8 (ABC DLBCL)) was 190 nM, the IC50 (FARAGE (GCB DLBCL); FARAGE, Experiment 1, ref Report CC-90010-Pharm-1018) was 710 nM and the IC50 (FARAGE (GCB DLBCL); Farage, Experiment 2, ref Report CC-90010-Pharm-1018) was 3350 nM. For the same molecule, the IC50 ([3]; read-out: overall mean IC50, colony formation) was 620 ± 130 nM, the “activity range of IC50 values” [3] was 18 fold and the IC50 [4] was 120 ± 10 nM. For the same molecule, the “daily dose up to which well tolerated” value [5] was 25 mg/kg, the TGI (GBM3 GBM PDX; GBM3, 6 mg/kg orally BID) was 76% and the TGI (GBM3 GBM PDX; GBM3, 12 mg/kg orally QD) was 63%. For the same molecule, the enzymes mediating metabolism (CYP3A4/5, CYP2C8) was “mediated primarily by CYP3A4/5 with minor involvement of CYP2C8”, the transporter substrate status (P-gp) was “substrate of P-gp” and the “dose excreted intact in bile or urine, average” value [6] was 0.9 % of the dose.
